Here are results for two compounds from patent publication US20240335381A1, “Transdermal Microemulsion Delivery Systems for Alcohol-Soluble Species Including Nonderivatized Hormones” (Quicksilver Scientific, Inc., priority 2021, published 2024).

≈ marks a conversion by molar mass, not a printed value. Where two headings read alike, the source gives them in different places.

A short description of data set [1]: Solubility in ethanol and in MCT oil. The format is physicochemical. The source says:
An alcohol-soluble species is a species that is insoluble in water and has a greater solubility in ethanol than in medium chain triglyceride (MCT) oils. […] Alcohol-soluble species are preferably pharmacologically active, more preferably are a drug or a supplement, and neither include nor are water. Thus, liquids and solids may exist that technically are soluble in alcohol, but because they also are soluble in water or more or equivalently soluble in MCT oils than in ethanol are not “alcohol-soluble species”.
Solubilized means that the alcohol-soluble species to be delivered is in the solution of the droplet. […] Thus, if either average particle diameters greater than 200 nm or precipitated crystals visible to the naked eye form, the alcohol-soluble species is not solubilized in the solution of the droplet. If an alcohol-soluble species is not solubilized in the solution, it is insoluble in the solution. In many respects, solubility may be thought of as a concentration dependent continuum. For example, the following descriptive terms may be used to express solubility of a solute in a solvent (grams solid/mL of solvent) at 25 degrees Celsius: […]

The conditions of data set [2]: cited from earlier work.

As to `C[C@]12CC[C@H](O)CC1=CC[C@@H]1[C@@H]2CC[C@]2(C)C(=O)CC[C@@H]12` [DHEA, dehydroepiandrosterone (3-beta-hydroxyandrosteron-5-en-17-one)], the “solubility level in MCT oil” value in data set [1] (MCT oil) is “sparingly soluble”. Also, the “solubility level in ethanol” value in data set [1] (ethanol) was “freely soluble”. The solubility in data set [1] (ethanol, organic solvent or mixture, read-out: solubility in ethanol) is ~150 mg/mL (≈ 520 mM); in data set [1] (medium chain triglyceride (MCT) oil, oil or lipid, MCT oil, read-out: solubility in MCT oil), ~10 mg/mL (≈ 34.7 mM).
As to `C[C@]12CC[C@H]3[C@@H](CCC4=CC(=O)CC[C@@]43C)[C@@H]1CC[C@@H]2O` [testosterone], the “time within which the remainder is metabolized from the blood” value in data set [2] (after introduction) is recorded as “three”. Besides, in data set [2] (within the first hour of introduction), the “share metabolized from the blood” value was “about 90%”.
